{"source": "patent US9988627B2", "about": "“Formats for organic compounds for use in RNA interference” (NOVARTIS AG, priority 2013, dated 2018)", "note": "“Also recorded” adds a separate entry of the source."}
{"test_system": "human APOC3", "test": "18-mer with internal spacer RNAi agents, residual mRNA in Huh7 at 15 nM", "type": "cell-based", "details": "not given", "from_the_text": "In the various RNAi agents described in this example, a nucleotide at any of positions 1 to 18 was individually replaced by a spacer subunit, and RNA interference activity was retained. The 3′ end of each strand terminates in a phosphate or modified internucleoside linker and further comprises, in 5′ to 3′ order, a second spacer, a second phosphate or modified internucleotide linker, and a 3′ end cap.\nSimilarly, U027, A027, G027 indicate that the nucleotides U, A or G, respectively, are absent and have been replaced by a spacer, which is ribitol. The target used in human APOC3. The numbers in columns 2 represent residual mRNA levels; thus, 5.8 in column 2, row 2, indicates residual mRNA level of 5.8% or 94.2% gene knockdown. SD, standard deviation.", "units": {"% Res mRNA_Huh7_15 nM": "%"}}
{"compound": "19 (sense GACAGUAUUCUCAGUGCU; antisense AGCACUGAGAAUACUGUC; chemical modifications, end caps, chemistry not fully specified) [compound 19]", "% Res mRNA_Huh7_15 nM": 6.3}
{"compound": "1 (sense GACAGUAUUCUCAGUGCU; antisense AGCACUGAGAAUACUGU; chemical modifications, end caps, chemistry not fully specified) [compound 1]", "% Res mRNA_Huh7_15 nM": 5.8}
{"compound": "16 (sense GACAGUAUUCUCAGUGCU; antisense AGACUGAGAAUACUGUC; siRNA; modified with OMe, F, MOE, ribitol spacers, code 006 undefined, further chemistry not given here) [compound 16]", "% Res mRNA_Huh7_15 nM": 6.8}
{"compound": "6 (sense GACAGUAUUCUCAGUGCU; antisense AGCACUGAGAAUCUGUC; chemical modifications, end caps, chemistry not fully specified) [compound 6]", "% Res mRNA_Huh7_15 nM": 33.1}
{"compound": "18 (sense GACAGUAUUCUCAGUGCU; antisense GCACUGAGAAUACUGUC; chemical modifications, end caps, chemistry not fully specified) [compound 18]", "% Res mRNA_Huh7_15 nM": 7.6}
{"compound": "5 (sense GACAGUAUUCUCAGUGCU; antisense AGCACUGAGAAUAUGUC; chemical modifications, end caps, chemistry not fully specified) [compound 5]", "% Res mRNA_Huh7_15 nM": 25.6}
{"compound": "11 (sense GACAGUAUUCUCAGUGCU; antisense AGCACUGGAAUACUGUC; siRNA; modified with OMe, F, MOE, ribitol spacers, code 006 undefined, further chemistry not given here) [compound 11]", "% Res mRNA_Huh7_15 nM": 22.3}
{"compound": "14 (sense GACAGUAUUCUCAGUGCU; antisense AGCAUGAGAAUACUGUC; siRNA; modified with OMe, F, MOE, ribitol spacers, code 006 undefined, further chemistry not given here) [compound 14]", "% Res mRNA_Huh7_15 nM": 3.2}
{"compound": "10 (sense GACAGUAUUCUCAGUGCU; antisense AGCACUGAAAUACUGUC; siRNA; modified with OMe, F, MOE, ribitol spacers, code 006 undefined, further chemistry not given here) [compound 10]", "% Res mRNA_Huh7_15 nM": 55}
{"compound": "COc1ccc(C(OCc2cc(Br)cc(CO)c2)(c2ccccc2)c2ccc(OC)cc2)cc1", "note": "[compound 2, (3-((bis(4-methoxyphenyl)(phenyl)methoxy)methyl)-5-bromophenyl)methanol]", "% Res mRNA_Huh7_15 nM": 3.4}
{"compound": "13 (sense GACAGUAUUCUCAGUGCU; antisense AGCACGAGAAUACUGUC; siRNA; modified with OMe, F, MOE, DNA, ribitol spacers, code 006 undefined, further chemistry not given here) [compound 13]", "% Res mRNA_Huh7_15 nM": 4.4}
{"compound": "9 (sense GACAGUAUUCUCAGUGCU; antisense AGCACUGAGAUACUGUC; siRNA; 2'-modified nucleotides, phosphates, 3' end caps, further chemistry not given here) [compound 9]", "% Res mRNA_Huh7_15 nM": 56.7}
{"compound": "7 (sense GACAGUAUUCUCAGUGCU; antisense AGCACUGAGAAACUGUC; chemical modifications, end caps, chemistry not fully specified) [compound 7]", "% Res mRNA_Huh7_15 nM": 22}
{"compound": "8 (sense GACAGUAUUCUCAGUGCU; antisense AGCACUGAGAUACUGUC; chemical modifications, end caps, chemistry not fully specified) [compound 8]", "% Res mRNA_Huh7_15 nM": 23.8}
{"compound": "17 (sense GACAGUAUUCUCAGUGCU; antisense ACACUGAGAAUACUGUC; chemical modifications, end caps, chemistry not fully specified) [compound 17]", "% Res mRNA_Huh7_15 nM": 57.4}
{"compound": "20 (sense GACAGUAUUCUCAGUGCU; antisense AGCACUGAGAAUACUGUC; siRNA; chemical modifications, end caps, further chemistry not given here) [compound 20]", "% Res mRNA_Huh7_15 nM": 9.7}
{"compound": "4 (sense GACAGUAUUCUCAGUGCU; antisense AGCACUGAGAAUACGUC; chemical modifications, end caps, chemistry not fully specified) [compound 4]", "% Res mRNA_Huh7_15 nM": 9.5}
{"compound": "3 (sense GACAGUAUUCUCAGUGCU; antisense AGCACUGAGAAUACUUC; chemical modifications, end caps, chemistry not fully specified) [compound 3]", "% Res mRNA_Huh7_15 nM": 11.3}
{"compound": "15 (sense GACAGUAUUCUCAGUGCU; antisense AGCCUGAGAAUACUGUC; siRNA; modified with OMe, F, MOE, ribitol spacers, code 006 undefined, further chemistry not given here) [compound 15]", "% Res mRNA_Huh7_15 nM": 18.3}
{"compound": "12 (sense GACAGUAUUCUCAGUGCU; antisense AGCACUAGAAUACUGUC; siRNA; modified with OMe, F, MOE, ribitol spacers, code 006 undefined, further chemistry not given here) [compound 12]", "% Res mRNA_Huh7_15 nM": 10.5}
{"compound": "21 (sense GpGpApC004pApGpU004pApU004pU004pC004pU004pC004pApGpU004pGpC004pU004pU002pU002; antisense ApGpCpApCpU004pGpApGpApApU004pApCpU004pGpU004pCpCpU002pU002; chemical modifications, as printed in the source, key not given here) [compound 21]", "% Res mRNA_Huh7_15 nM": 6.5}
{"test_system": "Hepcidin (HAMP) mRNA", "test": "Hepcidin mRNA down regulation in HuH-7 cells by 18-mer HAMP siRNA-PAZ ligand conjugates", "type": "cell-based, Homo sapiens", "details": "format S402+ribitol+MOE clamp", "from_the_text": "Potency of 18-mer HAMP (Hepcidin) siRNA-PAZ Ligand Conjugates is studied.\nA variety of constructs were made using the same two sequences. […] A variety of 3′ end caps is also used.\nHepcidin mRNA down regulation in HuH-7 cells is studied at 3 doses.\nTwo test sequences used are hs_HAMP_400 and 402. “hs” indicates “Homo sapiens”. 400 is a sequence beginning at position 400 and 402 is an overlapping sequence […]\nVarious other hs_HAMP 400 and 402 are depicted in FIG. 5A (Guide or antisense strand) and 5B (corresponding Sense strand).\nThis Table indicates the Nickname (“Oligo Identifier”) for the 3′ end cap, and the DMT, Succinate and Carboxylate variants thereof; the Carboxylate Kd; the KD (knockdown) mediated by a Hepcidin RNAi agent comprising the 3′ end cap (format: S402+ribitol+MOE clamp) at 5 nM in vitro; and the approximate (approx.) IC50", "units": {"Hepcidin KD at 5 nM in vitro (%)": "%"}}
{"compound": "OCCCCCCO", "note": "[C6, 1,6-hexane-diol]", "Hepcidin KD at 5 nM in vitro (%)": 66}
{"test_system": "FVII (Factor VII)", "test": "RNA interference of 3′-capped mF7-III siRNAs against FVII (FIG. 2)", "type": "cell-based, mouse", "details": "19-mer blunt-ended mF7-III siRNA, A12S17"}
{"compound": "C1C2CC3CC1CC(C2)C3", "note": "[Adamantane, adamantane]", "ability to mediate RNA interference": "allow the RNAi agent to perform RNA interference"}
{"compound": "OCCOCCOCCO", "note": "[Triethylene glycol, triethylene glycol]", "ability to mediate RNA interference": "allow the RNAi agent to perform RNA interference"}
{"compound": "OCCCCCCO", "note": "[C6, 1,6-hexane-diol]", "ability to mediate RNA interference": "allow the RNAi agent to perform RNA interference"}
{"test_system": "hepcidin (Hamp1) mRNA in liver", "test": "In vivo hepcidin knockdown in mouse liver (mRNA-qPCR), LNP569 Hamp254 18-mers", "details": "1×3 mg/kg i.v., 48 h (day 2)", "procedure": "PBS: phosphate-buffered saline (negative control). This experiment was performed in vivo in the mouse. These were single 3 mg/kg dose i.v., and Hepcidin mRNA knockdown in liver was measured after 2 and 7 days.\nLNP569 is a lipid nanoparticle preparation of the RNAi agent.\nTwo timepoints—48 and 168 hrs post-injection (both 3 mg/kg).\nAssess hepcidin knockdown in liver (mRNA-qPCR)"}
{"compound": "OCCCCCCO", "note": "[C6, 1,6-hexane-diol]", "Hepcidin knockdown in vivo at 48 hours post-dose": "more efficacious than the 21-mer format; also recorded: able to mediate Hepcidin knockdown"}
